Source: patent US8450357B2, “Compositions comprising an aryl pyrazole and/or a formamidine, methods and uses thereof” (Merial Limited, priority 2008, dated 2013)

Key:
[1] = system: fleas (Ctenocephalides felis); assay: Study B: flea efficacy of Compound 1 spot-on formulations in dogs; format: in vivo
Description: A separate clinical efficacy study in dogs was designed with an untreated control group and 5 test groups treated with compound 1. Each group had six dogs. Test articles were formulated as topical spot-on solutions containing compound 1, 10-20% w/v in a solvent or a combination of solvents as described above. Dogs were infested with approximately 50 ticks (Rhipicephalus sanguineus) on days −1, 7, 14, 21, 28, 35 and 42. Dogs were also infested with approximately 100 fleas (Ctenocephalides felis) on days −1, 8, 15, 22, 29, 36, and 43. Treatment was applied by parting the hair and applying the formulation directly onto the skin on one spot at the midline of the neck, between the base of the skull and the shoulder blades. […] […] It should be noted that Study A and Study B were conducted at different times and locations, and the results of each clinical study may differ from the other based on various environmental factors. Thus, the results of one clinical study should not be compared with those of another due to these factors.

[2] = system: ticks (Rhipicephalus sanguineus); assay: Study A: tick efficacy of Compound 1 spot-on formulations in dogs; format: in vivo
Experimental: An initial clinical study was conducted to test the efficacy of Compound 1 (3-cyano-1-(2-chloro-6-fluoro-4-trifluoromethylphenyl)-4-dichlorofluoromethylsulfinyl-5-methyl-1H-pyrazole) against ticks and fleas in various test formulations. Five test groups and an untreated control were evaluated. Each test group included six dogs. Compound was dissolved in a solvent or a combination of two or more solvents at 10% w/w. Test articles were formulated as topical spot-on solutions containing compound 1, 10% w/v in a solvent or a combination of solvents as described above. Dogs were infested with approximately 50 ticks (Rhipicephalus sanguineus) on days −1, 7, 14, 21, 28, 35 and 42. Dogs were also infested with approximately 100 fleas (Ctenocephalides felis) on days −1, 8, 15, 22, 29, 36, and 43. Treatment was applied by parting the hair and applying the formulation directly onto the skin on one spot at the midline of the neck, between the base of the skull and the shoulder blades. The dose rate of each of the topical solutions was 0.1 ml/kg (10 mg/kg) body weight. The efficacy of compound 1 in various formulations is shown Table 2 below.
Negative values indicate % increase in tick counts relative to control.

In the case of `Cc1c([S+]([O-])C(F)(Cl)Cl)c(C#N)nn1-c1c(F)cc(C(F)(F)F)cc1Cl` (centres unmarked) [Compound 1, 3-cyano-1-(2-chloro-6-fluoro-4-trifluoromethylphenyl)-4-dichlorofluoromethylsulfinyl-5-methyl-1H-pyrazole], the “% Efficacy against fleas” value ([1]; Day 2, Trt. Group 2: 0.1 ml/kg (10 mg/kg) in Triacetin) is reported as 100%, the “% Efficacy against fleas” value ([1]; Day 2, Trt. Group 3: 0.2 ml/kg (20 mg/kg) in Triacetin) is reported as 100% and the “% Efficacy against fleas” value ([1]; Day 2, Trt. Group 4: 10 mg/kg in Diisopropyl adipate) is reported as 100%. For the same compound, the “% Efficacy against fleas” value ([1]; Day 2, Trt. Group 5: 10 mg/kg in Diethylene glycol monoethyl ether (transcutol)) was 100%, the “% Efficacy against fleas” value ([1]; Day 2, Trt. Group 6: 10 mg/kg in Triacetin/diisopropyl adipate) was 100% and the “% Efficacy against fleas” value ([1]; Day 9, Trt. Group 2: 0.1 ml/kg (10 mg/kg) in Triacetin) was 100%. The “% Efficacy against fleas” value ([1]; Day 9, Trt. Group 3: 0.2 ml/kg (20 mg/kg) in Triacetin) was 100%, the “% Efficacy against fleas” value ([1]; Day 9, Trt. Group 4: 10 mg/kg in Diisopropyl adipate) was 100% and the “% Efficacy against fleas” value ([1]; Day 9, Trt. Group 5: 10 mg/kg in Diethylene glycol monoethyl ether (transcutol)) was 100%. For the same compound, the “% Efficacy against fleas” value ([1]; Day 9, Trt. Group 6: 10 mg/kg in Triacetin/diisopropyl adipate) was 100%, the “% Efficacy against fleas” value ([1]; Day 16, Trt. Group 2: 0.1 ml/kg (10 mg/kg) in Triacetin) was 100% and the “% Efficacy against fleas” value ([1]; Day 16, Trt. Group 3: 0.2 ml/kg (20 mg/kg) in Triacetin) was 100%. The “% Efficacy against fleas” value ([1]; Day 16, Trt. Group 4: 10 mg/kg in Diisopropyl adipate) was 100%, the “% Efficacy against fleas” value ([1]; Day 16, Trt. Group 5: 10 mg/kg in Diethylene glycol monoethyl ether (transcutol)) was 100% and the “% Efficacy against fleas” value ([1]; Day 16, Trt. Group 6: 10 mg/kg in Triacetin/diisopropyl adipate) was 100%. The “% Efficacy against fleas” value ([1]; Day 23, Trt. Group 2: 0.1 ml/kg (10 mg/kg) in Triacetin) was 99.8%, the “% Efficacy against fleas” value ([1]; Day 23, Trt. Group 3: 0.2 ml/kg (20 mg/kg) in Triacetin) was 99.8% and the “% Efficacy against fleas” value ([1]; Day 23, Trt. Group 4: 10 mg/kg in Diisopropyl adipate) was 100%. For the same compound, the “% Efficacy against fleas” value ([1]; Day 23, Trt. Group 5: 10 mg/kg in Diethylene glycol monoethyl ether (transcutol)) was 99.8%, the “% Efficacy against fleas” value ([1]; Day 23, Trt. Group 6: 10 mg/kg in Triacetin/diisopropyl adipate) was 99.8% and the “% Efficacy against fleas” value ([1]; Day 30, Trt. Group 2: 0.1 ml/kg (10 mg/kg) in Triacetin) was 99.7%. The “% Efficacy against fleas” value ([1]; Day 30, Trt. Group 3: 0.2 ml/kg (20 mg/kg) in Triacetin) was 100%, the “% Efficacy against fleas” value ([1]; Day 30, Trt. Group 4: 10 mg/kg in Diisopropyl adipate) was 100% and the “% Efficacy against fleas” value ([1]; Day 30, Trt. Group 5: 10 mg/kg in Diethylene glycol monoethyl ether (transcutol)) was 100%. The “% Efficacy against fleas” value ([1]; Day 30, Trt. Group 6: 10 mg/kg in Triacetin/diisopropyl adipate) was 100%, the “% Efficacy against fleas” value ([1]; Day 37, Trt. Group 2: 0.1 ml/kg (10 mg/kg) in Triacetin) was 99.8% and the “% Efficacy against fleas” value ([1]; Day 37, Trt. Group 3: 0.2 ml/kg (20 mg/kg) in Triacetin) was 100%. The “% Efficacy against fleas” value ([1]; Day 37, Trt. Group 4: 10 mg/kg in Diisopropyl adipate) was 98.9%, the “% Efficacy against fleas” value ([1]; Day 37, Trt. Group 5: 10 mg/kg in Diethylene glycol monoethyl ether (transcutol)) was 100% and the “% Efficacy against fleas” value ([1]; Day 37, Trt. Group 6: 10 mg/kg in Triacetin/diisopropyl adipate) was 100%. For the same compound, the “% Efficacy against fleas” value ([1]; Day 44, Trt. Group 2: 0.1 ml/kg (10 mg/kg) in Triacetin) was 100%, the “% Efficacy against fleas” value ([1]; Day 44, Trt. Group 3: 0.2 ml/kg (20 mg/kg) in Triacetin) was 100% and the “% Efficacy against fleas” value ([1]; Day 44, Trt. Group 4: 10 mg/kg in Diisopropyl adipate) was 99.6%. For the same compound, the “% Efficacy against fleas” value ([1]; Day 44, Trt. Group 5: 10 mg/kg in Diethylene glycol monoethyl ether (transcutol)) was 100%, the “% Efficacy against fleas” value ([1]; Day 44, Trt. Group 6: 10 mg/kg in Triacetin/diisopropyl adipate) was 100% and the “% Efficacy against fleas” value ([1]; Day 51, Trt. Group 2: 0.1 ml/kg (10 mg/kg) in Triacetin) was 99.8%. The “% Efficacy against fleas” value ([1]; Day 51, Trt. Group 3: 0.2 ml/kg (20 mg/kg) in Triacetin) was 99.7%, the “% Efficacy against fleas” value ([1]; Day 51, Trt. Group 4: 10 mg/kg in Diisopropyl adipate) was 98.5% and the “% Efficacy against fleas” value ([1]; Day 51, Trt. Group 5: 10 mg/kg in Diethylene glycol monoethyl ether (transcutol)) was 100%. The “% Efficacy against fleas” value ([1]; Day 51, Trt. Group 6: 10 mg/kg in Triacetin/diisopropyl adipate) was 100%, the “% Efficacy against fleas” value ([1]; Day 58, Trt. Group 2: 0.1 ml/kg (10 mg/kg) in Triacetin) was 99.6% and the “% Efficacy against fleas” value ([1]; Day 58, Trt. Group 3: 0.2 ml/kg (20 mg/kg) in Triacetin) was 99.0%. For the same compound, the “% Efficacy against fleas” value ([1]; Day 58, Trt. Group 4: 10 mg/kg in Diisopropyl adipate) was 96.7%, the “% Efficacy against fleas” value ([1]; Day 58, Trt. Group 5: 10 mg/kg in Diethylene glycol monoethyl ether (transcutol)) was 100% and the “% Efficacy against fleas” value ([1]; Day 58, Trt. Group 6: 10 mg/kg in Triacetin/diisopropyl adipate) was 98.8%. For the same compound, the “% Efficacy against ticks” value ([2]; Day 1, Trt. Group 2: 10 mg/kg in Butyl acetate/octyl acetate) was 48.6%, the “% Efficacy against ticks” value ([2]; Day 1, Trt. Group 3: 10 mg/kg in Diethylene glycol monoethyl ether (transcutol)/N-methyl-2-pyrrolidone) was 59.0% and the “% Efficacy against ticks” value ([2]; Day 1, Trt. Group 4: 10 mg/kg in Dipropylene glycol monomethyl ether/butyl acetate) was 71.5%. The “% Efficacy against ticks” value ([2]; Day 1, Trt. Group 5: 10 mg/kg in Diisopropyl adipate) was 71.5%, the “% Efficacy against ticks” value ([2]; Day 1, Trt. Group 6: 10 mg/kg in Triacetin) was 80.7% and the “% Efficacy against ticks” value ([2]; Day 2, Trt. Group 2: 10 mg/kg in Butyl acetate/octyl acetate) was 67.6%. For the same compound, the “% Efficacy against ticks” value ([2]; Day 2, Trt. Group 3: 10 mg/kg in Diethylene glycol monoethyl ether (transcutol)/N-methyl-2-pyrrolidone) was 60.8%, the “% Efficacy against ticks” value ([2]; Day 2, Trt. Group 4: 10 mg/kg in Dipropylene glycol monomethyl ether/butyl acetate) was 72.0% and the “% Efficacy against ticks” value ([2]; Day 2, Trt. Group 5: 10 mg/kg in Diisopropyl adipate) was 86.0%. The “% Efficacy against ticks” value ([2]; Day 2, Trt. Group 6: 10 mg/kg in Triacetin) was 79.2%, the “% Efficacy against ticks” value ([2]; Day 9, Trt. Group 2: 10 mg/kg in Butyl acetate/octyl acetate) was 88.1% and the “% Efficacy against ticks” value ([2]; Day 9, Trt. Group 3: 10 mg/kg in Diethylene glycol monoethyl ether (transcutol)/N-methyl-2-pyrrolidone) was 78.1%. The “% Efficacy against ticks” value ([2]; Day 9, Trt. Group 4: 10 mg/kg in Dipropylene glycol monomethyl ether/butyl acetate) was 71.2%, the “% Efficacy against ticks” value ([2]; Day 9, Trt. Group 5: 10 mg/kg in Diisopropyl adipate) was 90.4% and the “% Efficacy against ticks” value ([2]; Day 9, Trt. Group 6: 10 mg/kg in Triacetin) was 83.1%. For the same compound, the “% Efficacy against ticks” value ([2]; Day 16, Trt. Group 2: 10 mg/kg in Butyl acetate/octyl acetate) was 88.7%, the “% Efficacy against ticks” value ([2]; Day 16, Trt. Group 3: 10 mg/kg in Diethylene glycol monoethyl ether (transcutol)/N-methyl-2-pyrrolidone) was 81.4% and the “% Efficacy against ticks” value ([2]; Day 16, Trt. Group 4: 10 mg/kg in Dipropylene glycol monomethyl ether/butyl acetate) was 90.5%. For the same compound, the “% Efficacy against ticks” value ([2]; Day 16, Trt. Group 5: 10 mg/kg in Diisopropyl adipate) was 83.2%, the “% Efficacy against ticks” value ([2]; Day 16, Trt. Group 6: 10 mg/kg in Triacetin) was 91.7% and the “% Efficacy against ticks” value ([2]; Day 23, Trt. Group 2: 10 mg/kg in Butyl acetate/octyl acetate) was 41.1%. For the same compound, the “% Efficacy against ticks” value ([2]; Day 23, Trt. Group 3: 10 mg/kg in Diethylene glycol monoethyl ether (transcutol)/N-methyl-2-pyrrolidone) was 52.2%, the “% Efficacy against ticks” value ([2]; Day 23, Trt. Group 4: 10 mg/kg in Dipropylene glycol monomethyl ether/butyl acetate) was 38.4% and the “% Efficacy against ticks” value ([2]; Day 23, Trt. Group 5: 10 mg/kg in Diisopropyl adipate) was 20.4%. The “% Efficacy against ticks” value ([2]; Day 23, Trt. Group 6: 10 mg/kg in Triacetin) was 89.1%, the “% Efficacy against ticks” value ([2]; Day 30, Trt. Group 2: 10 mg/kg in Butyl acetate/octyl acetate) was 64.0% and the “% Efficacy against ticks” value ([2]; Day 30, Trt. Group 3: 10 mg/kg in Diethylene glycol monoethyl ether (transcutol)/N-methyl-2-pyrrolidone) was 45.9%. The “% Efficacy against ticks” value ([2]; Day 30, Trt. Group 4: 10 mg/kg in Dipropylene glycol monomethyl ether/butyl acetate) was 71.7%, the “% Efficacy against ticks” value ([2]; Day 30, Trt. Group 5: 10 mg/kg in Diisopropyl adipate) was 78.2% and the “% Efficacy against ticks” value ([2]; Day 30, Trt. Group 6: 10 mg/kg in Triacetin) was 72.3%. For the same compound, the “% Efficacy against ticks” value ([2]; Day 44, Trt. Group 2: 10 mg/kg in Butyl acetate/octyl acetate) was −8.6%, the “% Efficacy against ticks” value ([2]; Day 44, Trt. Group 3: 10 mg/kg in Diethylene glycol monoethyl ether (transcutol)/N-methyl-2-pyrrolidone) was −10.8% and the “% Efficacy against ticks” value ([2]; Day 44, Trt. Group 4: 10 mg/kg in Dipropylene glycol monomethyl ether/butyl acetate) was −29.9%. The “% Efficacy against ticks” value ([2]; Day 44, Trt. Group 5: 10 mg/kg in Diisopropyl adipate) was 0.3% and the “% Efficacy against ticks” value ([2]; Day 44, Trt. Group 6: 10 mg/kg in Triacetin) was 47.8%.
